{
  "source": "patent US11981658B2",
  "about": "“Substituted aminopyridine compounds as EGFR inhibitors” (YUHAN CORPORATION, priority 2021, dated 2024)",
  "key": {"[1]": {"target": "EGFR Del19/T790M/C797S (Homo sapiens, UniProt P00533, C797S/DEL746-750/T790M)", "sequence (P00533 with tags, fused parts or gaps DEL746-750/T790M/C797S)": "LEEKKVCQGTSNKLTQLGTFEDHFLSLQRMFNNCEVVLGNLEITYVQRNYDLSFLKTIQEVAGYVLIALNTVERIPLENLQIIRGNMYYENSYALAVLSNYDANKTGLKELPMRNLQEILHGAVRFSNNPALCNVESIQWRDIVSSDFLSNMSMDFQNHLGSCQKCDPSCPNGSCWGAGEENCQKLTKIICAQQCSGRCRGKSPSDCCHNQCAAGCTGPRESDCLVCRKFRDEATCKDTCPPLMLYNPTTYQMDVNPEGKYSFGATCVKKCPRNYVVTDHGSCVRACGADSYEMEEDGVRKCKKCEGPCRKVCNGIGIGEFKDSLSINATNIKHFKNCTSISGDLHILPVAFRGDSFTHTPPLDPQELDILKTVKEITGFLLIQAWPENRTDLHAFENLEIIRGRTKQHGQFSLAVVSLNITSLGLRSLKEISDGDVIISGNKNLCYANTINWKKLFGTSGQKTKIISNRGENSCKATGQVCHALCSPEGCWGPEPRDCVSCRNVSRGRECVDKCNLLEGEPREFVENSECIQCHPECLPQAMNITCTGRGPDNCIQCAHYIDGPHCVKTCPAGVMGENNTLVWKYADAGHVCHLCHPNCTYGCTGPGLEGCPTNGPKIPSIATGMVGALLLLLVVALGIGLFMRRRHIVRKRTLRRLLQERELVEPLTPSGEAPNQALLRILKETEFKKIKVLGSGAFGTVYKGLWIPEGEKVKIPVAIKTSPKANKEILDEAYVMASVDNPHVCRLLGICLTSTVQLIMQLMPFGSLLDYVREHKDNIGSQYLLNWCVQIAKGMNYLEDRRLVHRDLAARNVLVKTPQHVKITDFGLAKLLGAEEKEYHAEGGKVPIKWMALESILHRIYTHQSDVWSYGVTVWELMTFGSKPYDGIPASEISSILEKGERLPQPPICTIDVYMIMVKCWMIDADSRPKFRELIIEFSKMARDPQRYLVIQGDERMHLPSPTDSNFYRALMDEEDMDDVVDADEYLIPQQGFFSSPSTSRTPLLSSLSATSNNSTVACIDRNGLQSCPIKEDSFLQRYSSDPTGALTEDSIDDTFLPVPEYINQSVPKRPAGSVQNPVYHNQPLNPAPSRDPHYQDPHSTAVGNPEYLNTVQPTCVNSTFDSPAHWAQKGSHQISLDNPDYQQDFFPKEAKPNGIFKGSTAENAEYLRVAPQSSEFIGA", "assay": "Biochemical EGFR kinase inhibition assay (Lance Ultra TR-FRET), triple mutant del19/T790M/C797S", "how_it_was_run": "(§1)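 Enzyme reactions lasted 1 hour at room temperature with test compounds between 0.003 and 10 μM, followed by 10 mM EDTA quench.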"}, "[2]": {"target": "EGFR L858R/T790M/C797S (Homo sapiens, UniProt P00533, C797S/L858R/T790M)", "sequence (P00533 25-1210 T790M/C797S/L858R)": "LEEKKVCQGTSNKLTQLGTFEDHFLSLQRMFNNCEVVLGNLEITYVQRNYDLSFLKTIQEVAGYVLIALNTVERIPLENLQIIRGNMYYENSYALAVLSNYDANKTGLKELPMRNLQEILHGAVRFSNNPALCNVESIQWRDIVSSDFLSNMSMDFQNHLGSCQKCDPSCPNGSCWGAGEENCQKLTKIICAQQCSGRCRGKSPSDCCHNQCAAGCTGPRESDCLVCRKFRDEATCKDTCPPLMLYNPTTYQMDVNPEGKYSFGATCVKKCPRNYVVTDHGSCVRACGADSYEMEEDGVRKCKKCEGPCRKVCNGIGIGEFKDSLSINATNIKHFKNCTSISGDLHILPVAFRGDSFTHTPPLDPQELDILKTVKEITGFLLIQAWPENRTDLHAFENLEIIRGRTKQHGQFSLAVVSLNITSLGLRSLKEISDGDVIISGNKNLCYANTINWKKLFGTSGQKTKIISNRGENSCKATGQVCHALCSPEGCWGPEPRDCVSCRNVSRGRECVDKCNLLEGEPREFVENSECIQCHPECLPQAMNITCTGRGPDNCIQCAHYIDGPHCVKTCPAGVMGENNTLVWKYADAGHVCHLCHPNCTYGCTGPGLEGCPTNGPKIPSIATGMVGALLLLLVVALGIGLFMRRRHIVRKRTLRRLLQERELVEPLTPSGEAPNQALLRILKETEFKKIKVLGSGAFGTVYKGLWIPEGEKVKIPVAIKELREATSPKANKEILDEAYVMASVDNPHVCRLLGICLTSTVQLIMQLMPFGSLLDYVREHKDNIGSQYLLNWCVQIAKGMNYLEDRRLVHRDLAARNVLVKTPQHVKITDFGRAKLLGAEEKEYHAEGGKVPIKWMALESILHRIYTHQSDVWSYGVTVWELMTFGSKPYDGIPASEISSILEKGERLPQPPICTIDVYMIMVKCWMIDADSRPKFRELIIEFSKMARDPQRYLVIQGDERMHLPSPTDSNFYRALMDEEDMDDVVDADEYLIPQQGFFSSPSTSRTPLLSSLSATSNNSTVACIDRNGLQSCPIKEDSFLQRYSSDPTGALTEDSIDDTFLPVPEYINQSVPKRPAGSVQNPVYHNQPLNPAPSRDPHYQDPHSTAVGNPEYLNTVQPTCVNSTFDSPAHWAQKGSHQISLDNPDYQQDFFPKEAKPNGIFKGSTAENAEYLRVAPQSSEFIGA", "assay": "Biochemical EGFR kinase inhibition assay (Lance Ultra TR-FRET), triple mutant L858R/T790M/C797S", "how_it_was_run": "as §1"}, "[3]": {"target": "EGFR Del19/C797S (Homo sapiens, UniProt P00533, C797S/DEL746-750)", "sequence (P00533 with tags, fused parts or gaps DEL746-750/C797S)": "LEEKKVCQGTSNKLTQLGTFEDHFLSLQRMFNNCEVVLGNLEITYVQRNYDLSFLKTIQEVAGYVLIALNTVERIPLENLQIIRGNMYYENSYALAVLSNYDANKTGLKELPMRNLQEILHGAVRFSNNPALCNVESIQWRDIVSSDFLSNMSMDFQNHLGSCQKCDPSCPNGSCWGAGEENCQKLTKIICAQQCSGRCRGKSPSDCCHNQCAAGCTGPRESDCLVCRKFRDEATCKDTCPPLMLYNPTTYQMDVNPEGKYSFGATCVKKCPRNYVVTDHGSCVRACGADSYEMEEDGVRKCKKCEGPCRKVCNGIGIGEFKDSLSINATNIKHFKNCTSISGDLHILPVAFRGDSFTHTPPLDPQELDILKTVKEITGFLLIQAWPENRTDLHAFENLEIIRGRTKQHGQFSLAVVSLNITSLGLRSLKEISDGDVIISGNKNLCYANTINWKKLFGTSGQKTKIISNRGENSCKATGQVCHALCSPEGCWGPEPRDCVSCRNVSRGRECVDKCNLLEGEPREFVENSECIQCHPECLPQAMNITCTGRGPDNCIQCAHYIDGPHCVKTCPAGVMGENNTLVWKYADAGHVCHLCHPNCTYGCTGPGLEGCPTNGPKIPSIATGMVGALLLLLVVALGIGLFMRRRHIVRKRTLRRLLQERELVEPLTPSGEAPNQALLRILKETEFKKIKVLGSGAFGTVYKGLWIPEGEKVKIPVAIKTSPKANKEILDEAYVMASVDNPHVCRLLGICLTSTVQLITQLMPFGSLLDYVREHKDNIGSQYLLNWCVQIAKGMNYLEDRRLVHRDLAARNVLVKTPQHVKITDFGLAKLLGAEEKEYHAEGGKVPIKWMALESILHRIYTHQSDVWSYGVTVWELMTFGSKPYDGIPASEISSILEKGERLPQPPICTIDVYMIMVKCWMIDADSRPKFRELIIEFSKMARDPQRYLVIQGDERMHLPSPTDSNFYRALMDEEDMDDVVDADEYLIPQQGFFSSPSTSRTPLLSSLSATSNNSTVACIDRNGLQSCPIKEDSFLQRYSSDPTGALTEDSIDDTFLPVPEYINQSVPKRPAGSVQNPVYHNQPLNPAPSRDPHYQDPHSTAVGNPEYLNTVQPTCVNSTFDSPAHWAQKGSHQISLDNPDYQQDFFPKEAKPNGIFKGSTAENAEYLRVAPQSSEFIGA", "assay": "Biochemical EGFR kinase inhibition assay (Lance Ultra TR-FRET), double mutant del19/C797S", "how_it_was_run": "as §1"}, "[4]": {"target": "EGFR L858R/C797S (Homo sapiens, UniProt P00533, C797S/L858R)", "sequence (P00533 25-1210 C797S/L858R)": "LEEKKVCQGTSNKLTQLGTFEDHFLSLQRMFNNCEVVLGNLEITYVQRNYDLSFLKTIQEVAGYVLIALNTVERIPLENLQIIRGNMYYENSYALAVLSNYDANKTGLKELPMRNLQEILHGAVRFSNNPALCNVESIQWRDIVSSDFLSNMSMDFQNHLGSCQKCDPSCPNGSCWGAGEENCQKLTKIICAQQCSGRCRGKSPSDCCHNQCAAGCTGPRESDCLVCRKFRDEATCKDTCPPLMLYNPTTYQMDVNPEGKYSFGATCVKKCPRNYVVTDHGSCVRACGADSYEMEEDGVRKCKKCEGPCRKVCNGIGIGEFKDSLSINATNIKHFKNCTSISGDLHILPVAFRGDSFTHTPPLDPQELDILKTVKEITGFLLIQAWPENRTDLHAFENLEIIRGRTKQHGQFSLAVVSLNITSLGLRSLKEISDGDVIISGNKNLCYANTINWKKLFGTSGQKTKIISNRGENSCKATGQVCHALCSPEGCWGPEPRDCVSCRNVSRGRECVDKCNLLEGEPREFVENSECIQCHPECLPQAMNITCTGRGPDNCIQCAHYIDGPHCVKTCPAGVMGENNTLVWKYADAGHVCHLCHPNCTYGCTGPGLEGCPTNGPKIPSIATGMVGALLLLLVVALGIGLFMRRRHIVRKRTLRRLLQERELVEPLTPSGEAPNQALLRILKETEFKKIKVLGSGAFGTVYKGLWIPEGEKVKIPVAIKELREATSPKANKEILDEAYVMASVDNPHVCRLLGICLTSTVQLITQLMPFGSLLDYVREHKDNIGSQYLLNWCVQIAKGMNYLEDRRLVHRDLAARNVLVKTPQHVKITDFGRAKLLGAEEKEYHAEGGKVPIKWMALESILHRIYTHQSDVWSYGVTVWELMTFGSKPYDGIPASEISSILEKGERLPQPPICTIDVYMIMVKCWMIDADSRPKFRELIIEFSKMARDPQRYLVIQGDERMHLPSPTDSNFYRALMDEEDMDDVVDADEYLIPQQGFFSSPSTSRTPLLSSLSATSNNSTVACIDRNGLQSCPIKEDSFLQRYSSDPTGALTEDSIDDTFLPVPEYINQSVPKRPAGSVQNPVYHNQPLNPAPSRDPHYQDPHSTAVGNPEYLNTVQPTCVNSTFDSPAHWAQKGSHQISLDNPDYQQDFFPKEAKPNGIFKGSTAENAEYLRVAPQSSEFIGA", "assay": "Biochemical EGFR kinase inhibition assay (Lance Ultra TR-FRET), double mutant L858R/C797S", "how_it_was_run": "as §1"}, "[5]": {"target": "EGFR wildtype (WT) (Homo sapiens, UniProt P00533)", "assay": "Biochemical EGFR kinase inhibition assay (Lance Ultra TR-FRET), wildtype", "how_it_was_run": "as §1"}, "[6]": {"settings": "IC50 Del19/T790M/C797S (nM), 100 μM ATP"}, "[7]": {"settings": "Km ATP, read-out: IC50 Del19/T790M/C797S (nM), Km ATP"}, "[8]": {"settings": "IC50 L858R/T790M/C797S (nM), 100 μM ATP"}, "[9]": {"settings": "Km ATP, read-out: IC50 L858R/T790M/C797S (nM), Km ATP"}, "[10]": {"settings": "IC50 Del19/C797S (nM), 100 μM ATP"}, "[11]": {"settings": "Km ATP, read-out: IC50 Del19/C797S (nM), Km ATP"}, "[12]": {"settings": "IC50 L858R/C797S (nM), 100 μM ATP"}, "[13]": {"settings": "Km ATP, read-out: IC50 L858R/C797S (nM), Km ATP"}, "[14]": {"settings": "Km ATP, read-out: IC50 WT (nM), Km ATP"}},
  "note": "Like-named read-outs stand apart in the source and are kept apart here.",
  "data": [
    {"smiles": "CN1CCC(C#Cc2cnc(Nc3ccnc(-c4cnn(S(=O)(=O)C5CC5)c4)n3)cc2N2CCC3(CCCO3)CC2)C1", "note": "(stereo not shown) [Example 372, 2-(1-(Cyclopropylsulfonyl)-1H-pyrazol-4-yl)-N-(5-((1-methylpyrrolidin-3-yl)ethynyl)-4-(1-oxa-8-azaspiro[4.5]decan-8-yl)pyridin-2-yl)pyrimidin-4-amine]", "values": [
      {"measurement": "IC50", "setting": "[1]; [6]", "value": 0.3, "unit": "nM"},
      {"measurement": "IC50", "setting": "[1]; [7]", "value": 0.2, "unit": "nM"},
      {"measurement": "IC50", "setting": "[2]; [8]", "value": 0.3, "unit": "nM"},
      {"measurement": "IC50", "setting": "[2]; [9]", "value": 0.1, "unit": "nM"},
      {"measurement": "IC50", "setting": "[3]; [10]", "value": 1.6, "unit": "nM"},
      {"measurement": "IC50", "setting": "[3]; [11]", "value": 0.8, "unit": "nM"},
      {"measurement": "IC50", "setting": "[4]; [12]", "value": 22.9, "unit": "nM"},
      {"measurement": "IC50", "setting": "[4]; [13]", "value": 1, "unit": "nM"},
      {"measurement": "IC50", "setting": "[5]; IC50 WT (nM), 100 μM ATP", "value": 5110, "unit": "nM"},
      {"measurement": "IC50", "setting": "[5]; [14]", "value": 5.5, "unit": "nM"}
    ]},
    {"smiles": "CN1CCC(C#Cc2cnc(Nc3ccnc(-c4cnn(S(=O)(=O)C5CC5)c4)n3)cc2N2CCC3(CCO3)CC2)C1", "note": "(stereo not shown) [Example 373, 2-(1-(Cyclopropylsulfonyl)-1H-pyrazol-4-yl)-N-(5-((1-methylpyrrolidin-3-yl)ethynyl)-4-(1-oxa-7-azaspiro[3.5]nonan-7-yl)pyridin-2-yl)pyrimidin-4-amine]", "values": [
      {"measurement": "IC50", "setting": "[1]; [6]", "value": 0.2, "unit": "nM"},
      {"measurement": "IC50", "setting": "[1]; [7]", "value": 0.2, "unit": "nM"},
      {"measurement": "IC50", "setting": "[2]; [8]", "value": 0.4, "unit": "nM"},
      {"measurement": "IC50", "setting": "[2]; [9]", "value": 0.1, "unit": "nM"},
      {"measurement": "IC50", "setting": "[3]; [10]", "value": 1.8, "unit": "nM"},
      {"measurement": "IC50", "setting": "[3]; [11]", "value": 1.6, "unit": "nM"},
      {"measurement": "IC50", "setting": "[4]; [12]", "value": 41.6, "unit": "nM"},
      {"measurement": "IC50", "setting": "[4]; [13]", "value": 2.5, "unit": "nM"},
      {"measurement": "IC50", "setting": "[5]; IC50 WT (nM), 100 μM ATP", "value": 9540, "unit": "nM"},
      {"measurement": "IC50", "setting": "[5]; [14]", "value": 10.8, "unit": "nM"}
    ]},
    {"smiles": "O=S(=O)(C1CC1)n1cc(-c2nccc(Nc3cc(NC4CCC(CO)CC4)c(C#CC4CCCO4)cn3)n2)cn1", "note": "(stereo not shown) [Example 374, ((1s,4s)-4-((2-((2-(1-(Cyclopropylsulfonyl)-1H-pyrazol-4-yl)pyrimidin-4-yl)amino)-5-((tetrahydrofuran-2-yl)ethynyl)pyridin-4-yl)amino)cyclohexyl)methanol]", "values": [
      {"measurement": "IC50", "setting": "[1]; [6]", "value": 0.3, "unit": "nM"},
      {"measurement": "IC50", "setting": "[1]; [7]", "value": 0.3, "unit": "nM"},
      {"measurement": "IC50", "setting": "[2]; [8]", "value": 0.6, "unit": "nM"},
      {"measurement": "IC50", "setting": "[2]; [9]", "value": 0.3, "unit": "nM"},
      {"measurement": "IC50", "setting": "[3]; [10]", "value": 2.4, "unit": "nM"},
      {"measurement": "IC50", "setting": "[3]; [11]", "value": 1.3, "unit": "nM"},
      {"measurement": "IC50", "setting": "[4]; [12]", "value": 75.1, "unit": "nM"},
      {"measurement": "IC50", "setting": "[4]; [13]", "value": 4.1, "unit": "nM"},
      {"measurement": "IC50", "setting": "[5]; IC50 WT (nM), 100 μM ATP", "value": 9810, "unit": "nM"},
      {"measurement": "IC50", "setting": "[5]; [14]", "value": 10.4, "unit": "nM"}
    ]},
    {"smiles": "O=S(=O)(C1CC1)n1cc(-c2nccc(Nc3cc(NCC4CCC(O)CC4)c(C#CC4CCCO4)cn3)n2)cn1", "note": "(stereo not shown) [Example 375, (1 r,4r)-4-(((2-((2-(1-(Cyclopropylsulfonyl)-1H-pyrazol-4-yl)pyrimidin-4-yl)amino)-5-((tetrahydrofuran-2-yl)ethynyl)pyridin-4-yl)amino)methyl)cyclohexan-1-ol]", "values": [
      {"measurement": "IC50", "setting": "[1]; [6]", "value": 3.2, "unit": "nM"},
      {"measurement": "IC50", "setting": "[1]; [7]", "value": 2.5, "unit": "nM"},
      {"measurement": "IC50", "setting": "[2]; [8]", "value": 8, "unit": "nM"},
      {"measurement": "IC50", "setting": "[2]; [9]", "value": 1.3, "unit": "nM"},
      {"measurement": "IC50", "setting": "[3]; [10]", "value": 34.8, "unit": "nM"},
      {"measurement": "IC50", "setting": "[3]; [11]", "value": 13.1, "unit": "nM"},
      {"measurement": "IC50", "setting": "[4]; [12]", "value": 1920, "unit": "nM"},
      {"measurement": "IC50", "setting": "[4]; [13]", "value": 82, "unit": "nM"},
      {"measurement": "IC50", "setting": "[5]; IC50 WT (nM), 100 μM ATP", "value": "> 10000", "unit": "nM"},
      {"measurement": "IC50", "setting": "[5]; [14]", "value": 122, "unit": "nM"}
    ]},
    {"smiles": "O=S(=O)(C1CC1)n1cc(-c2nccc(Nc3cc(NC4CCC(O)CC4)c(C#CC4CCCO4)cn3)n2)cn1", "note": "(stereo not shown) [Example 376, (1s,4s)-4-((2-((2-(1-(Cyclopropylsulfonyl)-1H-pyrazol-4-yl)pyrimidin-4-yl)amino)-5-((tetrahydrofuran-2-yl)ethynyl)pyridin-4-yl)amino)cyclohexan-1-ol]", "values": [
      {"measurement": "IC50", "setting": "[1]; [6]", "value": 0.5, "unit": "nM"},
      {"measurement": "IC50", "setting": "[1]; [7]", "value": 0.3, "unit": "nM"},
      {"measurement": "IC50", "setting": "[2]; [8]", "value": 1.1, "unit": "nM"},
      {"measurement": "IC50", "setting": "[2]; [9]", "value": 3.4, "unit": "nM"},
      {"measurement": "IC50", "setting": "[3]; [10]", "value": 2.5, "unit": "nM"},
      {"measurement": "IC50", "setting": "[3]; [11]", "value": 1.4, "unit": "nM"},
      {"measurement": "IC50", "setting": "[4]; [12]", "value": 102, "unit": "nM"},
      {"measurement": "IC50", "setting": "[4]; [13]", "value": 7.8, "unit": "nM"},
      {"measurement": "IC50", "setting": "[5]; IC50 WT (nM), 100 μM ATP", "value": "> 10000", "unit": "nM"},
      {"measurement": "IC50", "setting": "[5]; [14]", "value": 15.1, "unit": "nM"}
    ]},
    {"smiles": "CC1(O)CCC(CNc2cc(Nc3ccnc(-c4cnn(S(=O)(=O)C5CC5)c4)n3)ncc2C#CC2CCCO2)CC1", "note": "(stereo not shown) [Example 377, (1 r,4r)-4-(((2-((2-(1-(Cyclopropylsulfonyl)-1H-pyrazol-4-yl)pyrimidin-4-yl)amino)-5-((tetrahydrofuran-2-yl)ethynyl)pyridin-4-yl)amino)methyl)-1-methylcyclohexan-1-ol]", "values": [
      {"measurement": "IC50", "setting": "[1]; [6]", "value": 4.1, "unit": "nM"},
      {"measurement": "IC50", "setting": "[1]; [7]", "value": 3, "unit": "nM"},
      {"measurement": "IC50", "setting": "[2]; [8]", "value": 10.6, "unit": "nM"},
      {"measurement": "IC50", "setting": "[2]; [9]", "value": 1.2, "unit": "nM"},
      {"measurement": "IC50", "setting": "[3]; [10]", "value": 34.6, "unit": "nM"},
      {"measurement": "IC50", "setting": "[3]; [11]", "value": 20.3, "unit": "nM"},
      {"measurement": "IC50", "setting": "[4]; [12]", "value": 1550, "unit": "nM"},
      {"measurement": "IC50", "setting": "[4]; [13]", "value": 52.2, "unit": "nM"},
      {"measurement": "IC50", "setting": "[5]; IC50 WT (nM), 100 μM ATP", "value": "> 10000", "unit": "nM"},
      {"measurement": "IC50", "setting": "[5]; [14]", "value": 132, "unit": "nM"}
    ]},
    {"smiles": "CC1(CO)CCN(c2cc(Nc3ccnc(-c4cnn(S(=O)(=O)C5CC5)c4)n3)ncc2C#CC2CCCO2)CC1", "note": "(stereo not shown) [Example 378, (1-(2-((2-(1-(Cyclopropylsulfonyl)-1H-pyrazol-4-yl)pyrimidin-4-yl)amino)-5-((tetrahydrofuran-2-yl)ethynyl)pyridin-4-yl)-4-methylpiperidin-4-yl)methanol]", "values": [
      {"measurement": "IC50", "setting": "[1]; [6]", "value": 0.3, "unit": "nM"},
      {"measurement": "IC50", "setting": "[1]; [7]", "value": 0.1, "unit": "nM"},
      {"measurement": "IC50", "setting": "[2]; [8]", "value": 0.4, "unit": "nM"},
      {"measurement": "IC50", "setting": "[2]; [9]", "value": 0.1, "unit": "nM"},
      {"measurement": "IC50", "setting": "[3]; [10]", "value": 1, "unit": "nM"},
      {"measurement": "IC50", "setting": "[3]; [11]", "value": 0.5, "unit": "nM"},
      {"measurement": "IC50", "setting": "[4]; [12]", "value": 34, "unit": "nM"},
      {"measurement": "IC50", "setting": "[4]; [13]", "value": 1.3, "unit": "nM"},
      {"measurement": "IC50", "setting": "[5]; IC50 WT (nM), 100 μM ATP", "value": 2900, "unit": "nM"},
      {"measurement": "IC50", "setting": "[5]; [14]", "value": 3.9, "unit": "nM"}
    ]}
  ]
}
